Test results published in ChEMBL document CHEMBL1799939, “Synthesis and biological evaluation of novel thiazolidinedione analogues as 15-hydroxyprostaglandin dehydrogenase inhibitors” (J Med Chem, 2011).
The source made the active and inactive calls. No cut-off for these calls is given here.

Legend:
[1] = molecular target: T1, 15-hydroxyprostaglandin dehydrogenase [NAD(+)] (Homo sapiens, UniProt P15428); experiment: Inhibition of human 15-PGDH expressed in Escherichia coli using PGE2 as substrate and NAD+ as coenzyme assessed as formation of NADH by spectrophotometric analysis
T1 sequence (P15428 whole entry): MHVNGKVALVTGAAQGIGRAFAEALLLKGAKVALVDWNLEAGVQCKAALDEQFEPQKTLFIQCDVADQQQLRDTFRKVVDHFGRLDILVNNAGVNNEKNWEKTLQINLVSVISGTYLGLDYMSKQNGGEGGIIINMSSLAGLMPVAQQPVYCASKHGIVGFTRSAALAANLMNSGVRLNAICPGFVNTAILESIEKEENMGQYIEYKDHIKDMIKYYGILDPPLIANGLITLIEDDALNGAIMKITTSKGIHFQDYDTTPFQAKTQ

[2] = molecular target: T2, 15-hydroxyprostaglandin dehydrogenase [NAD(+)] (Homo sapiens) (UniProt P15428); experiment: Inhibition of human 15-PGDH in human A549 cells assessed as increase in IL1-beta stimulated PGE2 production after 5 hrs by enzyme immunoassay; assay type: cell-based
T2 sequence (whole entry): T1 sequence (P15428 whole entry)

[3] = molecular target: T2, 15-hydroxyprostaglandin dehydrogenase [NAD(+)] (Homo sapiens); experiment: Inhibition of human 15-PGDH in human A549 cells assessed as increase in IL1-beta stimulated PGE2 production at 5 uM after 5 hrs by enzyme immunoassay; assay type: cell-based
[4] = system: HaCaT; experiment: Wound healing activity in human HaCaT cells assessed as re-epithelialization at 5 uM after 48 hrs by inverted microscopic analysis relative to control; assay type: functional, cell-based
[5] = system: A549; experiment: Inhibition of COX1 expression in human A549 cells at 5 uM after 25 hrs by RT-PCR analysis; assay type: functional, cell-based
[6] = system: A549; experiment: Induction of PGT expression in human A549 cells at 5 uM after 25 hrs by RT-PCR analysis; assay type: functional, cell-based
[7] = system: A549; experiment: Effect on COX2 expression in human A549 cells at 5 uM after 25 hrs by RT-PCR analysis; assay type: functional, cell-based
[8] = system: A549; experiment: Effect on MRP4 expression in human A549 cells at 5 uM after 25 hrs by RT-PCR analysis; assay type: functional, cell-based
[9] = system: Cavia porcellus; experiment: Increase in cochlear blood flow in guinea pig at 10 ug, iv measured after 40 mins; assay type: functional
[10] = system: Cavia porcellus; experiment: Increase in cochlear blood flow in guinea pig at 20 ug, iv measured after 50 mins; assay type: functional

For O=C1NC(=O)/C(=C/c2ccc(OC3CCCCC3)c(Cl)c2)S1, the IC50 [1] was 47 nM.
COc1cc(/C=C2\SC(=O)N(C)C2=O)ccc1OCCC1CCCCC1 was tested, and the Activity [2] was “Dose-dependent effect” and the IC50 [1] was over 50000 nM.
With O=C1NC(=O)/C(=C/c2ccc(OCC3CCCCC3)c(Cl)c2)S1 the IC50 [1] was 28 nM.
In the case of O=C1N=C(O)S/C1=C\c1ccc(OCCC2CCCCC2)c(Br)c1, the Activity [3] is reported as “Active”, the IC50 [1] is reported as 19 nM and the Activity [4] is reported as “Active”.
In the case of O=C1N=C(O)S/C1=C\c1ccc(OCCC2CCCCC2)c(Cl)c1, the Activity [3] is reported as “Active”, the IC50 [1] is reported as 8 nM and the Activity [5] is reported as “Active”. The Activity [6] was “Active”, the Activity [7] was “inactive” and the Activity [8] was “inactive”.
For O=C1N=C(O)S/C1=C\c1ccc(OCCC2CCCCC2)cc1, the Activity [3] was “Active”.
In the case of O=C1N=C(O)S/C1=C\c1ccc(OCCCCC2CCCCC2)c(Cl)c1, the IC50 [1] is reported as 24 nM.
For COc1cc(/C=C2\SC(=O)NC2=O)ccc1OCCC1CCCCC1, the Activity [9] was 22%, the Activity [2] was “Dose-dependent effect” and the Activity [3] was “Active”. The IC50 [1] was 25 nM, the Activity [10] was 65% and the Activity [5] was “Active”. The Activity [6] was “Active”, the Activity [7] was “inactive” and the Activity [8] was “inactive”.
Work on O=C1N=C(O)S/C1=C\c1ccc(OCCCC2CCCCC2)c(Cl)c1 yielded an IC50 [1] of 10 nM.
